Laboratory results published in paper PMC11464717, “Structural basis for antibiotic transport and inhibition in PepT2” (Nature Communications, 2024).
“And” between values parts separate entries of the source, which are not always exact repeats. Equal values may be shown once. Read-outs that look alike come from different tables or passages of the source. Where a SMILES comes first, the peptide text is derived from it.

T1: rat PepT2 (Rattus norvegicus, UniProt Q63424)
T1 construct: His-tagged GFP (C, cleaved yes); made in house; host or cells: HEK293F cells
T1 sequence (Q63424 1-729): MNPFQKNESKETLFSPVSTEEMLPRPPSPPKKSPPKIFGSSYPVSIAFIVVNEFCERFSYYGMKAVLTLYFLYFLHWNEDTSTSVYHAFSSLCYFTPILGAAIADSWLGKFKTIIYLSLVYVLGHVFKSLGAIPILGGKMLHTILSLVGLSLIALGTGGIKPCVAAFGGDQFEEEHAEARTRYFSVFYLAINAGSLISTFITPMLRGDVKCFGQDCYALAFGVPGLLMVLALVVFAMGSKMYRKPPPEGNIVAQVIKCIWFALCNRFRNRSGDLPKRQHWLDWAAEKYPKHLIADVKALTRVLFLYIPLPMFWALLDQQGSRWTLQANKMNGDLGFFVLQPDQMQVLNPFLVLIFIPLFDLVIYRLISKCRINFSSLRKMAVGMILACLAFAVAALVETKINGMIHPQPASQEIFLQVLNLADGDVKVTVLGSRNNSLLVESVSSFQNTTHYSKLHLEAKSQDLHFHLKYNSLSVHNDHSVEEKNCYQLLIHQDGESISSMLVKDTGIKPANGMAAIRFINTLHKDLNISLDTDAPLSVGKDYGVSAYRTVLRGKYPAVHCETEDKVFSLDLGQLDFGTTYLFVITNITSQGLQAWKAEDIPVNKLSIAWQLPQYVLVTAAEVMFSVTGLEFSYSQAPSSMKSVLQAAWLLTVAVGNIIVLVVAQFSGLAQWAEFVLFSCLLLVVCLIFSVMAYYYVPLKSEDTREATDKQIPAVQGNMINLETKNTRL


What was measured:
PepT2 = conditions: cell-based assays, inhibition of a radioactive reporter peptide; cited from earlier work
rat PepT2 [1] = molecular target: T1, rat PepT2; experiment: SSM-based electrophysiology (SURFE2R) of reconstituted PepT2; format: biochemical; conditions: result in words
Experimental: (§1) PepT2 was reconstituted into liposomes consisting of a 3:1 POPE:POPG (Avanti polar lipids, USA, Cat. No. 850757 C, 840457 C) using biobeads. The lipids were dried to obtain a thin film using a rotary evaporator and washed twice in pentane before being resuspended at 10 mg mL^–1 in lipid buffer (50 mM potassium phosphate at pH 7.5). These lipid vesicles were frozen and thawed twice in liquid nitrogen and stored at −80 °C until required. For reconstitution, the lipids were thawed and then extruded first through a 0.8-μm filter and then through a 0.4-μm filter. Purified PepT2 at 0.3 μg μl^−1 was added to the lipids at a final lipid:protein ratio of 100:1 (w/w) for transport assays or 10:1 for solid support membrane (SSM) experiments and incubated for 1 h at room temperature, then for a further 1 h on ice. After this time, biobeads were added in batches. After 24 h biobeads were removed and the proteoliposomes harvested by centrifugation at 120,000 g for 40 min before resuspension in lipid buffer at a final protein concentration of 0.25 μg μl^−1, or 0.5 ug ul^−1 for liposomes for SSM. They were subjected to three rounds of freeze–thawing in liquid nitrogen before storage at −80 °C.
SSM-based assays were performed on a SURFE^2R N1 (Nanion Technologies) with sensors prepared as follows. 50 μl of 0.5 mM 1-octadecanethiol solution in isopropanol was added to the sensor and left overnight. The sensor was rinsed three times with isopropanol and then three times with water before being allowed to dry. 1.5 ul of 7.5 μg/μl 1,2-diphytanoyl-sn-glycero-3-phosphocholin in n-decane was applied to the surface of the sensor. Immediately after this 50 ul of non-activating buffer were added and left for an hour at room temperature. Proteoliposomes were diluted (5 ul liposomes with 36 ul buffer) in non-activating buffer (20 mM HEPES, 140 mM KCl, 2 mM MgCl2 pH 7.2) and sonicated four times for 10 s in a water bath before application (2–6 μl) to the prepared 3 mm sensors. Sensors were incubated at room temperature and centrifugation at 2800 g for 30 min at 10 °C and incubated at room temperature for at least an hour prior to assaying. The activating buffer was made with the desired concentration of ligand (alanine, di-alanine, or the antibiotics of interest) in non-activating buffer. A single solution exchange workflow was used with activating buffer applied at 1 s and removed at 2 s. This technique was used to distinguish between antibiotics substrate (gives a current, similar to a known peptide control – di-alanine) and inhibitor (no current observed similar to a known non substrate, alanine) and raw traces from 1–3 s are shown in Fig. 1.

rat PepT2 [2] = molecular target: T1, rat PepT2; experiment: Inhibition of uptake of radioactive di-alanine peptide into PepT2 proteoliposomes (IC50); format: biochemical
Experimental: as §1, with “The” for “PepT2 was reconstituted into liposomes consisting of a 3:1 POPE:POPG (Avanti polar lipids, USA, Cat. No. 850757 C, 840457 C) using biobeads. The”
The reaction was initiated through the addition of valinomycin at 1 μM and stopped after 4 minutes by rapidly filtering onto 0.22-μm filters, which were then washed with 2 × 2 mL cold water. […] Experiments were performed three times (from at least 2 independent purifications and reconstitutions) to generate an overall mean and s.d.

rat PepT2 [3] = molecular target: T1, rat PepT2; experiment: Counterflow transport assay in PepT2 proteoliposomes; format: biochemical; conditions: for Counterflow transport, individual experiments (source data Fig 1d): relative to di-alanine; for Counterflow activity relative to L-Ala-L-Ala: Supplementary Table 2, RnPepT2 reconstituted liposome assay; for Ability to drive transport in counterflow: result in words, cloxacillin also at 10 mM
Experimental: as §1
Proteoliposomes were harvested through centrifugation before resuspending in counterflow buffer (50 mM potassium phosphate pH 7.5) containing 0.5 mM peptide or antibiotic (unless stated otherwise) or water as the negative control and were subjected to four rounds of freeze thawing in liquid nitrogen to fully distribute the buffer and ligand. The proteoliposomes were then extruded through a 0.2-μm filter. Transport was initiated by diluting into counterflow buffer containing 40 μM di-alanine with trace amounts of ^3H di-alanine, transport was allowed to proceed for 5 minutes before termination of the experiments through rapidly filtering onto 0.22-μm filters, which were then washed with 2 × 2 mL cold water. The amount of peptide transported inside the liposomes was calculated as above. Experiments were performed a minimal of five times and plotted as the level of transport for each ligand compared to the level observed with di-alanine as a percentage.

[4] = molecular target: T2, PepT2 (SLC15A2) from Rattus norvegicus (Rattus norvegicus, UniProt Q63424)
T2 construct: Proton-coupled peptide transporter PepT2 (SLC15A2), Rattus norvegicus; The extracellular domain is in the protein but was not built in the deposited models; also called rat PepT2; ratPepT2; source: HEK293F, transfected, purified (nickel NTA, TEV cleavage, SEC) in DDM:CHS; also reconstituted into POPE:POPG liposomes; not shown: GFP, C-terminal, cleaved; His tag, C-terminal, cleaved

[5] = molecular target: T2, PepT2 (SLC15A2) from Rattus norvegicus; experiment: cryo-EM structure; PepT2 after size exclusion (DDM:CHS) mixed with 1 mM antibiotic (cefadroxil, amoxicillin or cloxacillin) for one hour, then 1.2 molar excess of nanobody D8, on ice for at least 30 min; PepT2 at 5-6 mg/mL; conditions: both partners purified
[6] = rat PepT2 in liposomes, inhibition of 3H di-alanine uptake, 4 minutes, mean of n = 3 (SD), read-out: IC50
[7] = single independent experiments, 3 per ligand, read-out: IC50, individual experiments (source data Fig 1c)
[8] = 5 min, read-out: Counterflow activity relative to L-Ala-L-Ala
[9] = IC50, rat PepT2 in liposomes, inhibition of 3H di-alanine uptake, 4 minutes, mean of n = 3 (SD)
[10] = Supplementary Table 2, RnPepT2 reconstituted liposome assay, read-out: IC50 (µM) relative to L-Ala-L-Ala
[11] = 0.5 mM ligand, listed as Ala-Ala

Molecule	Capacitance change / current on solid support membrane (rat PepT2 [1])	IC50 (rat PepT2 [2]; [6]) [µM]	IC50 (rat PepT2 [2]; [7])	Counterflow activity relative to L-Ala-L-Ala (rat PepT2 [3]; [8]) [%]	Ability to drive transport in counterflow (rat PepT2 [3])	other results
CC1(C)S[C@@H]2[C@H](NC(=O)[C@H](N)c3ccc(O)cc3)C(=O)N2[C@H]1C(=O)O [Amoxicillin, amoxicillin]	significant capacitance change	270	225 µM and 301 µM and 280 µM	33		Ki (PepT2): 200 to 430 µM; Counterflow transport, individual experiments (source data Fig 1d) (rat PepT2 [3]; 0.5 mM ligand, listed as Amoxacillin): 29 and 39.2 and 34.1 and 35 and 28
CC1(C)S[C@@H]2[C@H](NC(=O)[C@H](N)c3ccccc3)C(=O)N2[C@H]1C(=O)O [Ampicillin, ampicillin]						IC50 (rat PepT2 [2]; [9]): 750 µM
CC1(C)S[C@@H]2[C@H](NC(=O)Cc3ccccc3)C(=O)N2[C@H]1C(=O)O [Benzylpenicillin, benzylpenicillin]				0	cannot transport	Counterflow transport, individual experiments (source data Fig 5a) (rat PepT2 [3]; 10 mM ligand): 7.2 and 6.8 and 6.2 and 4.1
N[C@@H](C(=O)N[C@@H]1C(=O)N2C(C(=O)O)=C(Cl)CS[C@H]12)c1ccccc1 [Cefaclor, cefaclor]			55 µM and 58 µM and 42 µM	76		Counterflow transport, individual experiments (source data Fig 5a) (rat PepT2 [3]; 0.5 mM ligand): 82 and 72.2 and 77.1 and 71.3; Counterflow activity relative to di-alanine (rat PepT2 [3]; uptake of 3H di-alanine, 5 minutes, level relative to di-alanine, 0.5 mM ligand unless stated otherwise): 76%
CC1=C(C(=O)O)N2C(=O)[C@@H](NC(=O)[C@H](N)c3ccc(O)cc3)[C@H]2SC1 [Cefadroxil, cefadroxil]	significant capacitance change	19	22 µM and 17 µM	120	more effectively than di-alanine	Ki (PepT2): 3 µM; IC50 (rat PepT2 [2]; [10]): 20 µM; Counterflow transport, individual experiments (source data Fig 1d) (rat PepT2 [3]; 0.5 mM ligand): 117 and 120.6 and 118 and 125 and 128
Nc1nc(/C(=C/CC(=O)O)C(=O)N[C@@H]2C(=O)N3C(C(=O)O)=CCS[C@H]23)cs1 [Ceftibuten, ceftibuten]				0	cannot transport	IC50 (rat PepT2 [2]; [10]): 1200 µM; IC50 (rat PepT2 [2]; rat PepT2 in liposomes, inhibition of 3H di-alanine uptake, read-out: IC50): 1000 µM; Counterflow transport, individual experiments (source data Fig 5a) (rat PepT2 [3]; 4 mM ligand): 6.7 and 5.6 and 6.9
Cc1onc(-c2ccccc2Cl)c1C(=O)N[C@@H]1C(=O)N2[C@@H]1SC(C)(C)[C@@H]2C(=O)O [Cloxacillin, cloxacillin]			180 µM and 220 µM and 210 µM	0	unable to drive transport	Ki (PepT2): 1000 µM; IC50 (rat PepT2 [2]; [9]): 203 µM; Counterflow transport, individual experiments (source data Fig 1d) (rat PepT2 [3]; 0.5 mM ligand): 4.1 and 3.2 and 4 and 1 and 3.1; Counterflow transport, individual experiments (source data Fig 1d) (rat PepT2 [3]; 10 mM ligand): 2.7 and 1.2 and 5.4 and 3.4 and 2.5
N[C@@H](CCCCNC(=O)OCc1ccc([N+](=O)[O-])cc1)C(=O)N1CCC[C@H]1C(=O)O [LZNP, Lys [Z(NO2)]-Proline]						Counterflow transport, individual experiments (source data Fig 1d) (rat PepT2 [3]; 0.5 mM ligand): 3.8 and 4.1 and 6.1 and 5.4
CO[C@@]1(NC(=O)C(C(=O)O)c2ccc(O)cc2)C(=O)N2C(C(=O)O)=C(CSc3nnnn3C)CO[C@@H]21 (stereo partly drawn) [Moxalactam, moxalactam]		500		0	cannot transport	Counterflow transport, individual experiments (source data Fig 5a) (rat PepT2 [3]; 1 mM ligand): 5.6 and 5.3 and 6.5 and 4.2
C[C@H](N)C(=O)O [alanine]	non-transported					
C[C@H](N)C(=O)N[C@@H](C)C(=O)O [di-alanine, L-Ala-L-Ala] (H-Ala-Ala-OH)	significant capacitance change	32				IC50 (rat PepT2 [2]; single independent experiments, 3 per ligand, listed as Ala-Ala, read-out: IC50, individual experiments (source data Fig 1c)): 34.6 µM and 31.2 µM and 29.4 µM; Counterflow transport, individual experiments (source data Fig 1d) (rat PepT2 [3]; [11]): 100 and 99.8 and 108.7 and 97.1 and 95.2; Counterflow transport, individual experiments (source data Fig 5a) (rat PepT2 [3]; [11]): 97.2 and 101.1 and 99.1 and 100.3; Counterflow activity relative to L-Ala-L-Ala (rat PepT2 [3]): 100
di-alanine peptide						IC50 of inhibition of the uptake of radioactive (3H) di-alanine into PepT2 proteoliposomes [4]: 32 µM
nanobody (D8) (VHH, The nanobody was in the complexes solved here (PDB 9BIR, 9BIS, 9BIT, 9BIU); Its expression plasmid is deposited at Addgene; also called the nanobody) VHH: QVQLVESGGGLVQPGGSLRLLCVASGRPFNDYDMGWFRQAPGKEREFVASISWSGRVTDYSDSMKGRCTVSRDNAKGTMFLQMSNLVPRDTAVYYCAAARRRWTFKATNTEEFYETWGQGTQVTVSS						binding result [5]: binds
